One data set relates to thrombocyte aggregation. In words: Inhibition of collagen-induced platelet aggregation in platelet-rich plasma (Born and Cross). The format is cell-based. The note with it: Homo sapiens, 10 min, read-out: Inhibition of platelet aggregation EC50.
For a further data set, the system named is thrombocytes. The data set is described as follows: Collagen-induced aggregation of thrombocytes ex vivo after oral administration. The format is in vivo. Particulars: rhesus monkey, oral administration of 1 mg/kg. Here is the method:
Moreover, the compound of Example 6(14), for example, inhibits the collagen-induced aggregation of thrombocytes in the rhesus monkey ex vivo after the oral administration of 1 mg/kg for up to four hours.

A further data set has as its target human thrombocytes. The data set is described as follows: Inhibition of binding of 3H-BIBU 52 to human thrombocytes (fibrinogen-binding test). Particulars: 3H-BIBU 52 final concentration 5 nM, plasma, 20 minutes, ambient temperature; 50% inhibition of binding.
Data set [1] is described as follows: Tolerability after intravenous administration to mice. The format is in vivo.
Setting [2] is: collagen-induced, platelet-rich plasma, 10 minutes incubation at 37° C., 50% change in optical density.

Molecules are shown by their SMILES. Structures can show the parent of a compound that is named as a salt. Where two headings read alike, the source gives them in different places.

Description for human thrombocytes: Inhibition of Binding of ^3 H-BIBU 52 to Human Thrombocytes
A suspension of human thrombocytes in plasma is incubated with ^3 H-BIBU 52 [=(3S,5S)-5-[(4'-amidino-4-biphenylyl)oxymethyl]-3-[(carboxyl)methyl]-2-pyrrolidinone[^3 -^3 H-4-biphenylyl]] […] The free and bound ligand is separated by centrifuging and quantitatively determined by scintillation counting. From the measurements obtained, the inhibition of ^3 H-BIBU 52 binding by the test substance is determined.
In order to do this, donor blood is taken from an anticubital vein and anticoagulated by trisodium citrate (final concentration 13 mM). The blood is centrifuged for 10 minutes at 170×g and the supernatant platelet-rich plasma (PRP) is removed. The remaining blood is vigorously centrifuged once more in order to obtain plasma. The PRP is diluted 1:10 with autologous plasma. 750 μl are incubated with 50 μl of physiological saline solution, 100 μl of test substance solution, 50 μl of ^4 C-sucrose (3,700 Bq) and 50 μl of ^3 H-BIBU 52 (final concentration: 5 nM) at ambient temperature for 20 minutes. In order to measure non-specific binding, instead of the test substance, 5 μl of BIBU 52 are put in (final concentration: 30 μM). The samples are centrifuged for 20 seconds at 10,000×g and the supernatant is drawn off. 100 μl therof are measured in order to determine the free ligand. The pellet is dissolved in 500 μl of 0.2N NaOH, 450 μl are mixed with 2 ml of scintillator and 25 μl of 5N HCl and measured. The residual plasma remaining in the pellet is determined from the ^14 C content, the bound ligand from the ^3 H measurement. After subtracting the non-specific binding, the pellet activity is plotted against the concentration of the test substance and the concentration for a 50% inhibition of binding is determined.
Description for thrombocyte aggregation: The thrombocyte aggregatrion is measured using the Born and Cross method (J. Physiol. 170: 397 (1964)) in platelet-rich plasma taken from health volunteers. To inhibit coagulation the blood is mixed with 3.14% sodium citrate in a ratio by volume of 1:10.
Collagen-induced agaregation
The pattern of the decrease in optical density of the platelet suspension is photometrically measured and recorded after the addition of the aggregation-triggering substance. The rate of aggregation is concluded from the angle of inclination of the density curve. The point on the curve where there is maximum light transmittance is used to calculate the optical density.
The amount of collagen used is as small as possible but sufficient to produce an irreversible reaction curve. Standard commercial collagen produced by Hormonchemie of Munich is used.
Before the addition of the collagen the plasma is incubated for 10 minutes with the substance at 37° C.
From the measurements obtained an EC50 is determined graphically, indicating a 50% change in the optical density in terms of the inhibition of aggregation.

Usually EC50 stands for the concentration at which the effect is half-maximal. What is called IC50 is the point on the concentration scale where inhibition reaches its midpoint. A higher IC50 goes with weaker potency in that assay. For the compound `Cc1nn(-c2ccc(C(=N)N)cc2)c(=O)n1-c1ccc(CCC(=O)OC2CCCCC2)cc1.Cl` [Example 6(14), 2-(4-amidinophenyl)-4-[4-[2-(cyclohexyloxycarbonyl)-ethyl]phenyl]-5-methyl-4H-1,2,4-triazol-3-one-hydrochloride], the EC50 in the data set with thrombocyte aggregation (setting [2]) was 40 nM. For the same compound, the “Duration of inhibition of collagen-induced aggregation of thrombocytes ex vivo” value with thrombocytes is “up to four”. In addition, the IC50 on human thrombocytes was 250 nM.

As to `CCOC(=O)CC[C@H]1CC[C@H](N2CCN(CCC3CCNCC3)C2=O)CC1` [6(35), 1-[trans-4-[2-(ethoxycarbonyl)ethyl]cyclohexyl]-3-[2-(4-piperidinyl)ethyl]-imidazolidin-2-one-hydrochloride], the EC50 with thrombocyte aggregation (setting [2]) amounted to 630 nM. At human thrombocytes, this compound came in with a half-maximal inhibitory concentration (IC50) of 5700 nM.

`CCOC(=O)CCc1ccc(N2CCN(CCC3CCNCC3)C2=O)cc1` [6(34), 1-[4-[2-(ethoxycarbonyl)ethyl]phenyl]-3-(2-(4-piperidinyl)ethyl]-imidazolidin-2-one-hydrochloride]: the 50% effective concentration (EC50) in the data set with thrombocyte aggregation (setting [2]) came out at 350 nM. In addition, the IC50 on human thrombocytes turned out to be 21000 nM.

On to `CCCCS(=O)(=O)NC(Cc1ccc(N2CCN(c3ccc(C(=N)N)cc3)C2=O)cc1)C(=O)O` (centres unmarked) [1(21), 1-(4-amidinophenyl)-3-[4-[2-(n-butylsulfonylamino)-2-carboxy-ethyl]phenyl]-imidazolidin-2-one-hydrochloride], for which the EC50 with thrombocyte aggregation (setting [2]) turned out to be 36 nM. This compound showed a half-inhibitory concentration (IC50) at human thrombocytes of 1 nM.

Regarding `CCCC(Cc1ccc(-n2c(C)nn(CCC3CCNCC3)c2=O)cc1)C(=O)O` (centres unmarked) [1(8), 4-[4-(2-carboxy-1-pentyl)phenyl]-5-methyl-2-(2-(4-piperidinyl)ethyl)-4H-1,2,4-triazol-3-one-hydrochloride], the EC50 in the data set on thrombocyte aggregation (setting [2]) amounted to 1200 nM. Besides, the IC50 on human thrombocytes is 760 nM.

For the compound `CN1CCC(CCN2CCN(c3ccc(CCC(=O)O)cc3)C2=O)CC1` [Example 15], in the data set on thrombocyte aggregation (setting [2]), the concentration for a half-maximal effect (EC50) turned out to be 4300 nM. On human thrombocytes, this compound came in with an IC50 of 12000 nM.

On to `Cc1nn(CCC2CCNCC2)c(=O)n1-c1ccc(CCC(=O)O)cc1` [1(4), 4-[4-(2-carboxyethyl)phenyl]-5-methyl-2-[2-(4-piperidinyl)ethyl]-4H-1,2,4-triazol-3-one-toluenesulphonate×water], for which the EC50 with thrombocyte aggregation (setting [2]) was determined as 500 nM. Besides, the “Deaths after intravenous administration” value in data set [1] (mouse, in vivo, iv, 30 mg/kg) is given as “none of the three animals tested died”. This compound came in with an IC50 on human thrombocytes of 280 nM.

As to `Cl.O=C(O)CCc1ccc(N2CCN(CCC34CCN(CC3)CC4)C2=O)cc1` [Example 26, 1-[4-(2-Carboxyethyl)phenyl]-3-[2-(4-quinuclidinyl)ethyl]-imidazolidin-2-one-hydrochloride], the EC50 in the data set on thrombocyte aggregation (Platelet) was determined as 84 nM. Also, the “Deaths after intravenous administration” value in data set [1] (mice, 30 mg/kg intravenous, three animals) was “none of the three animals tested died”. Further, on human thrombocytes, the IC50 turned out to be 26 nM.

In the case of `Cl.O=C(O)CC[C@H]1CC[C@H](N2CCN(CCC3CCNCC3)C2=O)CC1` [1(39), 1-[trans-4-(2-carboxyethyl)cyclohexyl]-3-[2-(4-piperidinyl)ethyl]-imidazolidin-2-one-hydrochloride], the EC50 with thrombocyte aggregation (setting [2]) was found to be 86 nM. In addition, the “Deaths after intravenous administration” value in data set [1] (mouse, in vivo, iv, 30 mg/kg) is “none of the three animals tested died”. The compound further registered an IC50 at human thrombocytes of 25 nM.

With `O=C1N(c2ccc(C34CCN(CC3)CC4)cc2)CCN1[C@H]1CC[C@H](C(=O)O)CC1` [1(50), 1-(trans-4-carboxycyclohexyl)-3-[4-(4-quinuclidinyl)-phenyl]-imidazolidin-2-one-hydrochloride×1.2 H2 O], the EC50 with thrombocyte aggregation (Platelet) worked out at 170 nM. Also, the IC50 at human thrombocytes worked out at 65 nM.

For the compound `NC1CCCc2cc(N3CCN(c4ccc(CCC(=O)O)cc4)C3=O)ccc21` (centres unmarked) [1(3), 1-(1-amino-1,2,3,4-tetrahydronaphthalin-6-yl)-3-[4-(2-carboxyethyl)phenyl]-imidazolidin-2-one-hydrochloride], the concentration for a half-maximal effect (EC50) in the data set with thrombocyte aggregation (setting [2]) worked out at 270 nM. For the same compound, the IC50 at human thrombocytes came to 64 nM.

For `Cc1nn(-c2ccc(C(=N)N)cc2)c(=O)n1-c1ccc(CC(C)C(=O)O)cc1` (centres unmarked) [1(1), 2-(4-amidinophenyl)-4-[4-(2-carboxy-1-propyl)phenyl]-5-methyl-4H-1,2,4-triazol-3-one×0.5 water], the EC50 with thrombocyte aggregation (setting [2]) was determined as 30 nM. The “Deaths after intravenous administration” value in data set [1] (mouse, in vivo, iv, 30 mg/kg) is recorded as “none of the three animals tested died”. On human thrombocytes, this compound registered an IC50 of 0.8 nM.

Take `N#CC1(c2ccc(N3CCN(CCCCC(=O)O)C3=O)cc2)CCNCC1` [24(1), 1-(4-carboxybutyl)-3-[4-(4-cyano-4-piperidinyl)-phenyl]-imidazolidin-2-one]: the EC50 in the data set with thrombocyte aggregation (setting [2]) stood at 940 nM. The IC50 at human thrombocytes came out at 150 nM.

Turning to `Cl.O=C1N(c2ccc(C3CCNCC3)cc2)CCN1[C@H]1CC[C@H](C(=O)O)CC1` [Example 17, 1-(trans-4-Carboxycyclohexyl)-3-[4-(4-piperidinyl)phenyl]-imidazolidin-2-one-hydrochloride], in the data set on thrombocyte aggregation (setting [2]), the half-maximal effective concentration (EC50) amounted to 43 nM. Further, in data set [1] (mouse, in vivo, iv, 30 mg/kg), the “Deaths after intravenous administration” value was “none of the three animals tested died”. The compound further had an IC50 at human thrombocytes of 16 nM.

For the compound `O=C(O)C=Cc1ccc(N2CCN(CCC3CCNCC3)C2=O)c(F)c1` [4(13), 1-[4-(2-carboxyethenyl)-2-fluoro-phenyl]-3-[2-(4-piperidinyl)ethyl]-imidazolidin-2-one×1.1 HCl×1 H2 O], in the data set with thrombocyte aggregation (setting [2]), the EC50 came out at 300 nM. This compound registered an IC50 on human thrombocytes of 250 nM.

In the case of `O=C(O)CO[C@H]1CC[C@H](N2CCN(CCC3CCNCC3)C2=O)CC1` [30(4), 1-[trans-4-[(carboxymethyl)oxy]cyclohexyl]-3-[2-(4-piperidinyl)ethyl]-imidazolidin-2-one-hydrochloride×0.3 H2 O], the EC50 in the data set with thrombocyte aggregation (setting [2]) is 490 nM. Further, on human thrombocytes, the IC50 amounted to 200 nM.

As to `NCC1CCC(N2CCN(c3ccc(CCC(=O)O)cc3)C2=O)CC1` (centres unmarked) [4(5), 1-[4-(aminomethyl)cyclohexyl]-3-[4-(2-carboxyethyl)phenyl]-imidazolidin-2-one], in the data set with thrombocyte aggregation (setting [2]), the EC50 worked out at 3300 nM. At human thrombocytes, this compound showed an IC50 of 4100 nM.

As to `CC1(c2ccc(N3CCN([C@H]4CC[C@H](C(=O)O)CC4)C3=O)cc2)CCNCC1` [24(2), 1-(trans-4-carboxycyclohexyl)-3-[4-(4-methyl-4-piperidinyl)phenyl]-imidazolidin-2-one], the concentration giving a half-maximal response (EC50) with thrombocyte aggregation (setting [2]) is 71 nM.

For the compound `CCOC(=O)CCc1ccc(N2CCN(CCC34CCN(CC3)CC4)C2=O)cc1` [6(37), 1-[2-(4-quinuclidinyl)ethyl]-3-[4-[2-(ethoxycarbonyl)-ethyl]phenyl]-imidazolidin-2-one-hydro-chloride], the EC50 with thrombocyte aggregation (Platelet) was 380 nM. The compound further registered an IC50 at human thrombocytes of 7100 nM.

In the case of `O=C1N(C2CCC(C3CCNCC3)CC2)CCN1[C@H]1CC[C@H](C(=O)O)CC1` (some centres unmarked) [18(2)], the EC50 in the data set on thrombocyte aggregation (setting [2]) came out at 110 nM.

On to `NCC1CCc2cc(N3CCN([C@H]4CC[C@H](C(=O)O)CC4)C3=O)ccc2C1` (relative stereo) [1(44), 1-(2-aminomethyl-1,2,3,4-tetrahydro-6-naphthyl)-3-(trans-4-carboxycyclohexyl)-imidazolidin-2-one-hydrochloride], for which the EC50 with thrombocyte aggregation (setting [2]) was determined as 380 nM.

In the case of `Cc1nn(-c2ccc(C(=N)N)cc2)c(=O)n1[C@H]1CC[C@@H](CCC(=O)O)CC1` [Example 4, 2-(4-Amidinophenyl)-4-[cis-4-(2-carboxyethyl)cyclo-hexyl]-5-methyl-4H-1,2,4-triazol-3-one], in the data set with thrombocyte aggregation (setting [2]), the EC50 turned out to be 130 nM.

With `N=C(N)c1ccc(-n2ncn([C@H]3CC[C@H](CCC(=O)O)CC3)c2=O)cc1` [4(4), 2-(4-amidinophenyl)-4-[trans-4-(2-carboxyethyl)-cyclohexyl]-4H-1,2,4-triazol-3-one], in the data set with thrombocyte aggregation (setting [2]), the EC50 turned out to be 30 nM. The IC50 at human thrombocytes was 2.9 nM.

As to `Cc1nn(-c2ccc(C(=N)N)cc2)c(=O)n1-c1cccc(CCC(=O)O)c1` [5(2), 2-(4-amidinophenyl)-4-[3-(2-carboxyethyl)phenyl]-5-methyl-4H-1,2,4-triazol-3-one], the EC50 with thrombocyte aggregation (setting [2]) amounted to 840 nM. Besides, on human thrombocytes, the IC50 is 720 nM.

For `N=C(N)c1ccc(N2CCN(c3ccc(CCc4nnn[nH]4)cc3)C2=O)cc1` [2(5), 1-(4-amidinophenyl)-3-[4-[2-(5-tetrazolyl)ethyl]phenyl]-imidazolidin-2-one], in the data set with thrombocyte aggregation (setting [2]), the EC50 amounted to 3200 nM. The compound further showed an IC50 at human thrombocytes of 3500 nM.

On to `O=C(O)CCc1ccc(N2CCN(CCC3CCNCC3)C2=O)cc1` [1(6), 1-[4-(2-carboxyethyl)phenyl]-3-[2-(4-piperidinyl)ethyl]-imidazolidin-2-one-hydrochloride×water], for which the EC50 with thrombocyte aggregation (setting [2]) came to 100 nM. For the same compound, the “Deaths after intravenous administration” value in data set [1] (mouse, in vivo, iv, 30 mg/kg) was “none of the three animals tested died”. The IC50 at human thrombocytes is 18 nM.

Take `N=C(N)c1ccc(-n2nc(-c3ccccc3)n(-c3ccc(CCC(=O)O)cc3)c2=O)cc1` [1(2), 2-(4-amidinophenyl)-4-[4-(2-carboxyethyl)phenyl]-5-phenyl-4H-1,2,4-triazol-3-one×2 water]: the half-maximal effective concentration (EC50) in the data set with thrombocyte aggregation (setting [2]) worked out at 70 nM. Further, at human thrombocytes, the IC50 stood at 1.2 nM.

Consider `CCOC(=O)[C@H]1CC[C@H](N2CCN(c3ccc(C4CCNCC4)cc3)C2=O)CC1` [6(40), 1-[trans-4-(ethoxycarbonyl)cyclohexyl]-3-[4-(4-piperidinyl)phenyl]-imidazolidin-2-one-hydrochloride], for which the 50% effective concentration (EC50) in the data set on thrombocyte aggregation (setting [2]) came out at 240 nM. The compound further gave an IC50 on human thrombocytes of 2500 nM.

The values are drawn from patent US5880284A, “Cyclic urea derivatives, pharmaceutical compositions containing these compounds and processes for preparing them” (Dr. Karl Thomae GmbH, priority 1992, dated 1999).
